Laboratory results from US6906100B2, “Compounds and compositions derived from olives and methods of the use thereof” (Lavipharm S.A., priority 2002, dated 2005).

How the values were obtained:
[1] = test system: Jurkat cells; experiment: comet assay (single cell gel electrophoresis): protection of DNA of intact cells exposed to H2O2; assay type: cell-based; conditions: H2O2 generated by glucose oxidase; for protective activity on cells against oxidative stress (decrease of induced DNA damage): 10 min exposure
Protocol: In the analysis of the antioxidant activity of the extracts I, II, III and IV, as well as, of the pure Compounds 1-9, a method based on measuring the relative protection of DNA of intact cells was performed. This was done with the use of Jurkat cell cultures (a cell line of T-lymph-cells), which were grown in RPMI-1640 enriched with fetal bovine calf serum (10%), penicillin, streptomycin and glutamine. The cells were incubated with the extracts or the purified compounds in the presence of glucose oxidase (60 ng/100 ml) used for the generation of H2O2. After exposure of the cells to H2O2 for 10 min, the degree of DNA damage was evaluated using a specialized method, “single cell gel electrophoresis”, also known as the “comet assay”. The comet assay method is described in the following references: 1. Barbouti A. et al., “DNA Damage And Apoptosis In Hydrogen Peroxide-Exposed Jurkat Cells: Bolus Addition Versus Continuous Generation Of H2O2,” Free Radical Biology and Medicine, 33(5): 691-702, Elsevier Press (2002); as well as Panagiotidis M. et al. (1999) Free Radical Biology and Medicine, 26(5-6): 548-556; Doulias P-T. et al. (2001) Free Radical Biology and Medicine, 30(6): 679-685; Tselepis A. et al. (2001) Free Radical Biology and Medicine, 30(12): 1357-1364; and Barbouti A. et al. (2001) Free Radical Biology and Medicine, 31(4): 490-498 5.
Jurkat cells—a cell line of lymphocytic origin—were exposed to continuously generated hydrogen peroxide, H2O2 and the effects of this treatment on cellular DNA was evaluated according to the references above. […]
The graphic results of the “comet assay” for the waste water extract (IV) and tyrosol (Compound 4), 2-(5-ethylidene-2-oxo-tetrahydropyran-4-yl) acetic acid (from the compound class of lactones or Compound 6) and hydroxytyrosol (Compound 7) are depicted below in FIGS. 3-6, respectively. […] The values are expressed as mean ±SD (n=3).

[2] = antioxidant ability by usual chemical methods (e.g. DPPH)

In the case of `OCCc1ccc(O)cc1` [tyrosol, Tyrosol], the “protective activity on cells against oxidative stress (decrease of induced DNA damage)” value [1] is reported as “not”.
For `CC=C1COC(=O)CC1CC(=O)O` (stereo not shown) [2-(5-ethylidene-2-oxo-tetrahydropyran-4-yl) acetic acid], the “dose dependence of protection” value [1] was “dose-dependent protection”, the “protective activity on cells against oxidative stress (decrease of induced DNA damage)” value [1] was “strong protective activity” and the antioxidant ability [2] was “does not show any antioxidant ability”.
